For one assay, the system named is 5-HT3 receptors. As to conditions: unpublished results / in press; cited from earlier work.
A further assay has as its target nAChR α7 (Homo sapiens, UniProt P36544). As to conditions: FIG. 6.
Another assay has as its system α7-nicotinic receptor. The assay is described as follows: Two-electrode voltage-clamp current recording from Xenopus oocytes expressing α7-nicotinic receptors. The format is cell-based, human, rat and chick. Here is the method: (a) Xenopus Oocyte Current Recording
The Xenopus oocyte has provided a powerful means of assessing the function of proteins thought to be subunits of ligand-gated ion-channels.
Consequently, one convenient technique to assess the enhancement of nicotinic efficacy is two-electrode voltage-clamp recording from Xenopus oocytes expressing α7-nicotinic receptors from cRNA.
Oocytes were removed to OR2 solution (82 mM NaCl, 2.5 mM KCl, 5 mM HEPES, 1.5 mM NaH2PO4, 1 mM MgCl2, 0.1 mM EDTA; pH 7.4). The oocytes were defolliculated by incubation in 25 ml OR2 containing 0.2% collagenase 1A (Sigma) two times for 60 min on a platform vibrating at 1 Hz and stored in Leibovitz's L-15 medium (50 μg/ml gentomycin, 10 Units/ml penicillin, and 10 μg/ml streptomycin). Approximately 50 ng of cRNA was injected in each oocyte the following day. cRNA was synthesised from cDNA using Message Machine (purchased from Abion).
The external recording solution consisted of 90 mM NaCl, 1 mM KCl, 1 mM MgCl2, 1 mM BaCl2, 5 mM HEPES; pH 7.4. […] Oocytes were impaled with two electrodes of 1-2 MΩ tip resistance when filled with 3M KCl. Recordings were begun when membrane potential became stable at potentials negative to −20 mV (resting membrane potentials are less negative when Ba^++ replaces Ca^++ in bathing solutions). Membrane potential was clamped at −80 mV.
Current amplitude was measured from baseline to peak. EC50 values, maximal effect, and Hill slopes were estimated by fitting the data to the logistic equation using GraphPad Prism (GraphPad Software, Inc., San Diego, Calif.).
Increases in agonist efficacy elicited by a positive modulator can be calculated in two ways: • (1) As percent potentiation of current amplitude which is defined as 100(Im−Ic)/Ic where Im is current amplitude in the presence of modulator and Ic is current in the absence of modulator (FIG. 1). • (2) As percent potentiation of “area under curve” of an agonist trace. Area under the curve is a common representation of the total ion flux through the channel (FIG. 2).

The target of assay [1] is mouse muscle-type nicotinic receptors (Mus musculus, UniProt P02716+P04756+P09690). The assay is described as follows: Efficacy enhancement on other nicotinic receptors. Type of assay: cell-based.
Chain of mouse muscle-type nicotinic receptors (P04756 21-457): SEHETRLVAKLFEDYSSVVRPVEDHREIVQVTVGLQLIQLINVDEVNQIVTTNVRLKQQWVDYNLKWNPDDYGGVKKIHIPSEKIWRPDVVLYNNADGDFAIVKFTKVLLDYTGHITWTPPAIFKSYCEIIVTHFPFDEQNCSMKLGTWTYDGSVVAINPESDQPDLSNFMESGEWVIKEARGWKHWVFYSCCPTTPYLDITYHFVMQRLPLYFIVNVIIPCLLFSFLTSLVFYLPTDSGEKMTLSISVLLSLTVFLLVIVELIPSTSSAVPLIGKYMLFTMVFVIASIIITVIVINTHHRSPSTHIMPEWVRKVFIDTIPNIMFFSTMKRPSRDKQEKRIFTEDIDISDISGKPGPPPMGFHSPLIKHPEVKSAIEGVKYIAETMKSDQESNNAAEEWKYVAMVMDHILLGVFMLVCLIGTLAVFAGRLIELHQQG
Chain of mouse muscle-type nicotinic receptors (P09690 24-501): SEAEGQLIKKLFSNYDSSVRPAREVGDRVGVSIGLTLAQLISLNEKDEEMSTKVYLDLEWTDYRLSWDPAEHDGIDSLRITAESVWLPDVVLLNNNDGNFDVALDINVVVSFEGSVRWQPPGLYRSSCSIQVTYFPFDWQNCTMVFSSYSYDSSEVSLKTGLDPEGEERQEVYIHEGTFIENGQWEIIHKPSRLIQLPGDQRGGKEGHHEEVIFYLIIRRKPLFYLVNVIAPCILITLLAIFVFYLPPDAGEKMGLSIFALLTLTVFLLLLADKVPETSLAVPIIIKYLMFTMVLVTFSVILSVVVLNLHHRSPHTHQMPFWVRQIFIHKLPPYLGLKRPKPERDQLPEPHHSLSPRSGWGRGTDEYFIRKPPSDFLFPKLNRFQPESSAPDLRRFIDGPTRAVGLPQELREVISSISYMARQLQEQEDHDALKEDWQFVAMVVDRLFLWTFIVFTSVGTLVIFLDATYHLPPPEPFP
Chain of mouse muscle-type nicotinic receptors (P02716 25-520): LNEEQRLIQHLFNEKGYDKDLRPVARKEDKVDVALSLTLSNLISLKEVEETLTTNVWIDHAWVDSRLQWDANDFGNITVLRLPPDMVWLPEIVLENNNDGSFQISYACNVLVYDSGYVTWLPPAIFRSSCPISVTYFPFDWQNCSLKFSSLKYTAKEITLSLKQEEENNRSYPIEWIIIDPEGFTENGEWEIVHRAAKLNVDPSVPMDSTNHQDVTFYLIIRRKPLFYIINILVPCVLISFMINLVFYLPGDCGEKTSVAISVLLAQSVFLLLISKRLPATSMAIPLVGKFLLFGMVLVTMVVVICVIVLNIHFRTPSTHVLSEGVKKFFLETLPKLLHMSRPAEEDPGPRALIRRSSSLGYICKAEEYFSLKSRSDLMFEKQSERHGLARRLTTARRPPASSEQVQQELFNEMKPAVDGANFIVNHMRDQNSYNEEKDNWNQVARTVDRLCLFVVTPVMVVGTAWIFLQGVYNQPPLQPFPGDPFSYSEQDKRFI

Molecules are shown by their SMILES. Where two headings read alike, the source gives them in different places.

Chain of nAChR α7 (P36544 23-502): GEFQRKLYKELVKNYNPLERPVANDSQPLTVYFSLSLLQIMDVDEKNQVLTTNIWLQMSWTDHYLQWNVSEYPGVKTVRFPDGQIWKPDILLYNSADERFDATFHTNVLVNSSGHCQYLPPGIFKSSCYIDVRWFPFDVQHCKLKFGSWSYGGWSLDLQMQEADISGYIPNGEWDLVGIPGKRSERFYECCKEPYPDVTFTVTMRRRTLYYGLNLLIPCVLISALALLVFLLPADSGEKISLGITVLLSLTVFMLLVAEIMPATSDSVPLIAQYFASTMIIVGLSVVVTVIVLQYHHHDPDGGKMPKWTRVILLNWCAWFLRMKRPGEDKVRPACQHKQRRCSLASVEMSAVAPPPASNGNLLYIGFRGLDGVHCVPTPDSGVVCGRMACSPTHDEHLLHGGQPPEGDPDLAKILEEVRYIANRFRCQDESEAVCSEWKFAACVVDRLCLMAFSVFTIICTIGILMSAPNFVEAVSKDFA
Description for nAChR α7: To screen for α7 modulatory activity, the 96 well plate is placed in a fluorescence imaging plate reader (FLIPR) and test compounds along with an α7 agonist are applied simultaneously to all wells. Receptor activation is measured by calcium influx into cells which is quantified by the increase in fluorescence intensity of each well, recorded simultaneously by the FLIPR. A modulatory effect is determined by the increase in fluorescence over that of agonist alone. Similarly, to test for nAChR α7 agonist activity, test compounds along with an α7 modulator are applied simultaneously to all wells. Receptor activation is measured by calcium influx into cells which is quantified by the increase in fluorescence intensity of each well, recorded simultaneously by the FLIPR. An agonist effect is determined by the increase in fluorescence over that of modulator alone.
Effect of nAChR α7 modulator on agonist activity was measured by Ca^2+ flux through nAChR α7 expressed in HEK-293 cells. The nicotinic agonist (−)-Spiro[1-Azabicyclo[2.2.2.]Octane-3,5*-Oxazolidine]-2*-One, was used.

For `NS(=O)(=O)c1cc2c(cc1Cl)NC(C1CC3C=CC1C3)NS2(=O)=O` (stereo not drawn) [cyclothiazide], in the assay with 5-HT3 receptors, the “effect on 5-HT3 receptors” value is listed as “block 5-HT3 receptors”.

In the case of `O=C1NCC2(CN3CCC2CC3)O1` (single isomer, unassigned; (-)), on nAChR α7 (no modulator), the “agonist activity as Ca2+ flux signal, agonist alone” value is on record as “No discernible signal”. For the same compound, the “agonist activity as Ca2+ flux signal, agonist together with modulator” value on nAChR α7 (with nAChR α7 modulator) is “significant increase in agonist activity”.

For the compound `NCCc1c[nH]c2ccc(O)cc12` [serotonin], the “positive modulation on ACh activity (efficacy enhancing activity)” value with α7-nicotinic receptor is “did not increase efficacy”; in the assay with α7-nicotinic receptor (listed as 5-HT), “unable to reproduce the finding that 5-HT increases activity”.

In the case of `Oc1ccc2[nH]ccc2c1` [5-hydroxyindole], in assay [1], the “increase in efficacy on other nicotinic receptors” value is given as “not seen on any other nicotinic receptors”. Also, the “increase in area under the curve” value in the assay with α7-nicotinic receptor (0.5 mM 5-OHi, saturating agonist (3 mM ACh), 1 second agonist application, FIG. 4) is given as ~400%. Moreover, in the assay with α7-nicotinic receptor (5-hydroxyindole 500 μM against a range of ACh concentrations, FIG. 3), the “increase of maximal response to ACh (maximum amplitude)” value is listed as 2 fold. In addition, the “increase in efficacy of agonists at nicotinic receptors” value with α7-nicotinic receptor (general statement) is given as “greater than 2 fold”. The “increase in efficacy of various nicotinic agonists afforded by 5-hydroxyindole” value in the assay on α7-nicotinic receptor (modulator 1 mM 5-OHi, ACh 3 mM, AR-R 17779 100 μM, FIG. 5) is on record as “seen with all nicotinic agonists tested”. Also, the “current induced when applied by itself” value in the assay with α7-nicotinic receptor (no agonist, oocytes injected with cRNA for α7 nicotinic receptors) is given as “did not induce current”.

In the case of `NCC(=O)O` [Glycine], in the assay with 5-HT3 receptors, the “effect on 5-HT3 receptors” value was “no effect”.

The record behind these values is patent US6861443B2, “Positive modulators of nicotinic receptors” (Astra AB, priority 1998, dated 2005).
